Data: ChEMBL document CHEMBL1150738, “Plant antitumor agents, 27. Isolation, structure, and structure activity relationships of alkaloids from Fagara macrophylla” (1987)
The source made the active and inactive calls. The calls are words filed in the database; no cut-off is given here.

Assays:
[1] = system: P388; assay: In vivo antitumor activity against mouse P388 cells at 30 to 50 mg/kg, ip relative to control; assay type: functional; conditions: for T/C: dose mg/kg 30-50, route intraperitoneal
[2] = system: B16; assay: Cytotoxicity against mouse B16 cells; assay type: functional, cell-based

COc1cc2c(=O)n(C)c3c4cc5c(cc4ccc3c2cc1OC)OCO5
Activity [1]: inactive

COc1cc2cnc3c4cc5c(cc4ccc3c2cc1OC)OCO5
Activity [1]: inactive

COc1cc2c(cc1OC)C(OC)N(C)c1c-2ccc2cc3c(cc12)OCO3 (stereo unspecified)
T/C [1]: 240%

COc1cc2c(cc1OC)-c1ccc3cc4c(cc3c1N(C)C2)OCO4
Activity [1]: inactive

COc1cc2c[n+](C)c3c4cc5c(cc4ccc3c2cc1OC)OCO5.[Cl-] [NITIDINE CHLORIDE]
T/C [1]: 240% | Activity [2]: inactive
